{
  "source": "paper PMC6557200",
  "about": "“Correction: First-in-human phase 1 study of the BTK inhibitor GDC-0853 in relapsed or refractory B-cell NHL and CLL” (Oncotarget, 2019)",
  "experiment": "First-in-human phase 1 study: pharmacokinetics parameters of GDC-0853 (plasma) on day 1 and day 15",
  "format": "in vivo",
  "conditions": "for AUC(0-inf): read-out: Day 1 AUC0-inf Mean (%CV)",
  "description": "Table 3 Summary of pharmacokinetics parameters for GDC-0853 on day 1 and day 15 (cohorts 1, 2, and 3, with 100, 200, and 400-mg GDC-0853, respectively) | column: Day 1 T1/2 (hr) Mean (%CV); Day 1 Tmax^a (hr) Median (range); Day 1 Cmax (μM) Mean (%CV); Day 1 AUC0-inf (hr•μM) Mean (%CV); Day 1 AUC0-24 (hr*μM) Mean (%CV); Day 15 Tmax^a(hr) Median (range); Day 15 Cmax (μM) Mean (%CV); Day 15 AUC0- 24 (hr•μM) Mean (%CV); Day 15 Accumulation Ratio Mean (%CV)",
  "note": "Like-named read-outs stand apart in the source and are kept apart here.",
  "data": [
    {"compound": "C[C@H]1CN(C2COC2)CCN1c1ccc(Nc2cc(-c3ccnc(N4CCn5c(cc6c5CC(C)(C)C6)C4=O)c3CO)cn(C)c2=O)nc1", "note": "[GDC-0853]", "values": [
      {"measurement": "Day 15 Accumulation Ratio Mean (%CV)", "setting": "100 mg (n = 6), cohort 1, day 15", "value": "1.78 (58.4)"},
      {"measurement": "Day 15 Accumulation Ratio Mean (%CV)", "setting": "200 mg (n = 9), cohort 2, day 15", "value": "1.44 (77.9)"},
      {"measurement": "Day 15 Accumulation Ratio Mean (%CV)", "setting": "400 mg (n = 9), cohort 3, day 15", "value": "1.91 (102)"},
      {"measurement": "Cmax", "setting": "human, plasma, 100 mg, 100 mg (n = 6), cohort 1, day 1, plasma, read-out: Day 1 Cmax Mean (%CV)", "value": 119, "unit": "nM"},
      {"measurement": "AUC(0-t)", "setting": "human, plasma, 100 mg, 100 mg (n = 6), cohort 1, day 1, read-out: Day 1 AUC0-24 Mean (%CV)", "value": 0.67, "unit": "µM·h"},
      {"measurement": "AUC(0-t)", "setting": "human, plasma, 100 mg, 100 mg (n = 6), cohort 1, day 15, read-out: Day 15 AUC0-24 Mean (%CV)", "value": 1.2, "unit": "µM·h"},
      {"measurement": "Cmax", "setting": "human, plasma, 200 mg, 200 mg (n = 9), cohort 2, day 1, plasma, read-out: Day 1 Cmax Mean (%CV)", "value": 571, "unit": "nM"},
      {"measurement": "AUC(0-t)", "setting": "human, plasma, 200 mg, 200 mg (n = 9), cohort 2, day 1, read-out: Day 1 AUC0-24 Mean (%CV)", "value": 2.54, "unit": "µM·h"},
      {"measurement": "Cmax", "setting": "human, plasma, 200 mg, 200 mg (n = 9), cohort 2, day 15, plasma, read-out: Day 15 Cmax Mean (%CV)", "value": 614, "unit": "nM"},
      {"measurement": "AUC(0-t)", "setting": "human, plasma, 200 mg, 200 mg (n = 9), cohort 2, day 15, read-out: Day 15 AUC0-24 Mean (%CV)", "value": 2.83, "unit": "µM·h"},
      {"measurement": "Cmax", "setting": "human, plasma, 400 mg, 400 mg (n = 9), cohort 3, day 1, plasma, read-out: Day 1 Cmax Mean (%CV)", "value": 1440, "unit": "nM"},
      {"measurement": "AUC(0-t)", "setting": "human, plasma, 400 mg, 400 mg (n = 9), cohort 3, day 1, read-out: Day 1 AUC0-24 Mean (%CV)", "value": 6.95, "unit": "µM·h"},
      {"measurement": "Cmax", "setting": "human, plasma, 400 mg, 400 mg (n = 9), cohort 3, day 15, plasma, read-out: Day 15 Cmax Mean (%CV)", "value": 1390, "unit": "nM"},
      {"measurement": "AUC(0-t)", "setting": "human, plasma, 400 mg, 400 mg (n = 9), cohort 3, day 15, read-out: Day 15 AUC0-24 Mean (%CV)", "value": 7.74, "unit": "µM·h"},
      {"measurement": "AUC(0-inf)", "setting": "human, plasma, 100 mg (n = 6), cohort 1, day 1", "value": 0.861, "unit": "µM·h"},
      {"measurement": "AUC(0-inf)", "setting": "human, plasma, 200 mg (n = 9), cohort 2, day 1", "value": 3.42, "unit": "µM·h"},
      {"measurement": "Tmax", "setting": "human, plasma, 200 mg (n = 9), cohort 2, day 15, read-out: Day 15 Tmax Median (range)", "value": 2.1, "unit": "h"},
      {"measurement": "AUC(0-inf)", "setting": "human, plasma, 400 mg (n = 9), cohort 3, day 1", "value": 7.57, "unit": "µM·h"}
    ]}
  ]
}
